Laboratory results reported in ChEMBL document CHEMBL3885861, “Open TG-GATES”.

Species: Rattus norvegicus
Test: Open TG-GATES - Regimen: Single
Assay type: toxicity, organism-based, Sprague-Dawley
Set-up: regimen Single, gender Male, age 6 weeks
Conditions: in vivo, po, route gavage; for APTT / Bas / Eos / Fbg / Hb / Ht / Lym / MCH / MCHC / MCV / Mono / Neu / PT / Plat / RBC / Ret / WBC: tissue Blood; for KIDNEY_L / KIDNEY_R / KIDNEY_TOTAL: tissue Kidney; for LIVER: tissue Liver; for A/G / ALP / ALT / AST / BUN / CRE / Ca / Cl / DBIL / GLC / IP / K / LDH / Na / PL / RALB / TBIL / TC / TG / TP / gamma-GTP: tissue Plasma
[1] = 300 mg/kg, 3 h, dose level Middle
[2] = 300 mg/kg, 6 h, dose level Middle
[3] = 300 mg/kg, 9 h, dose level Middle
[4] = 300 mg/kg, 24 h, dose level Middle
[5] = 1000 mg/kg, 3 h, dose level High
[6] = 1000 mg/kg, 6 h, dose level High
[7] = 1000 mg/kg, 9 h, dose level High
[8] = 1000 mg/kg, 24 h, dose level High

COC1=CC(=O)C[C@@H](C)[C@]12Oc1c(Cl)c(OC)cc(OC)c1C2=O [GRISEOFULVIN]
TERMINAL_BW [1]: 212.4 g
APTT [1]: 18.3 s
Bas [1]: 0%
Eos [1]: 1.2%
Fbg [1]: 229.2 mg/dL
Hb [1]: 12.7 g/dL
Ht [1]: 37.4%
Lym [1]: 71.6%
MCH [1]: 21.5 pg
MCHC [1]: 34.1%
MCV [1]: 63.1 fL
Mono [1]: 3.4%
Neu [1]: 23.2%
PT [1]: 12.9 s
Plat [1]: 130.7 x10_4/uL
RBC [1]: 592 x10_4/ul
Ret [1]: 7.8%
WBC [1]: 110.1 x10_2/uL
KIDNEY_L [1]: 0.9 g
KIDNEY_R [1]: 0.9 g
KIDNEY_TOTAL [1]: 1.9 g
LIVER [1]: 9.7 g
A/G [1]: 1.6
ALP [1]: 1144 IU/L
ALT [1]: 40.8 IU/L
AST [1]: 69.2 IU/L
BUN [1]: 11.2 mg/dL
CRE [1]: 0.3 mg/dL
Ca [1]: 11 mg/dL
Cl [1]: 104.2 meq/L
DBIL [1]: 0.2 mg/dL
GLC [1]: 190.4 mg/dL
IP [1]: 8.7 mg/dL
K [1]: 4 meq/L
LDH [1]: 113.8 IU/L
Na [1]: 140.8 meq/L
PL [1]: 175.8 mg/dL
RALB [1]: 3.3 g/dL
TBIL [1]: 0.2 mg/dL
TC [1]: 84.8 mg/dL
TG [1]: 134.8 mg/dL
TP [1]: 5.3 g/dL
gamma-GTP [1]: 1.2 IU/L
TERMINAL_BW [2]: 212.5 g
APTT [2]: 17.7 s
Bas [2]: 0%
Eos [2]: 1%
Fbg [2]: 220.2 mg/dL
Hb [2]: 12.8 g/dL
Ht [2]: 38.1%
Lym [2]: 72.6%
MCH [2]: 21.8 pg
MCHC [2]: 33.6%
MCV [2]: 64.7 fL
Mono [2]: 3.6%
Neu [2]: 22.4%
PT [2]: 13.1 s
Plat [2]: 129.2 x10_4/uL
RBC [2]: 588.6 x10_4/ul
Ret [2]: 7.9%
WBC [2]: 82.9 x10_2/uL
KIDNEY_L [2]: 1 g
KIDNEY_R [2]: 1 g
KIDNEY_TOTAL [2]: 2 g
LIVER [2]: 9.5 g
A/G [2]: 1.8
ALP [2]: 1072.4 IU/L
ALT [2]: 37.2 IU/L
AST [2]: 68.4 IU/L
BUN [2]: 10.2 mg/dL
CRE [2]: 0.4 mg/dL
Ca [2]: 10.8 mg/dL
Cl [2]: 103.2 meq/L
DBIL [2]: 0.096 mg/dL
GLC [2]: 205.6 mg/dL
IP [2]: 9.7 mg/dL
K [2]: 4 meq/L
LDH [2]: 139.2 IU/L
Na [2]: 141.4 meq/L
PL [2]: 150.6 mg/dL
RALB [2]: 3.4 g/dL
TBIL [2]: 0.2 mg/dL
TC [2]: 79 mg/dL
TG [2]: 50.4 mg/dL
TP [2]: 5.4 g/dL
gamma-GTP [2]: 1.4 IU/L
TERMINAL_BW [3]: 210.4 g
APTT [3]: 17.3 s
Bas [3]: 0%
Eos [3]: 0.8%
Fbg [3]: 214 mg/dL
Hb [3]: 12.9 g/dL
Ht [3]: 38.2%
Lym [3]: 79.4%
MCH [3]: 21.4 pg
MCHC [3]: 33.9%
MCV [3]: 63.1 fL
Mono [3]: 2.6%
Neu [3]: 17%
PT [3]: 13.6 s
Plat [3]: 115.4 x10_4/uL
RBC [3]: 605 x10_4/ul
Ret [3]: 8.2%
WBC [3]: 82.6 x10_2/uL
KIDNEY_L [3]: 1 g
KIDNEY_R [3]: 1 g
KIDNEY_TOTAL [3]: 2 g
LIVER [3]: 8.7 g
A/G [3]: 1.6
ALP [3]: 1051.6 IU/L
ALT [3]: 30.8 IU/L
AST [3]: 63 IU/L
BUN [3]: 11.4 mg/dL
CRE [3]: 0.3 mg/dL
Ca [3]: 10.6 mg/dL
Cl [3]: 103.8 meq/L
DBIL [3]: 0.07 mg/dL
GLC [3]: 200.2 mg/dL
IP [3]: 10.3 mg/dL
K [3]: 3.8 meq/L
LDH [3]: 132.4 IU/L
Na [3]: 141.6 meq/L
PL [3]: 140.6 mg/dL
RALB [3]: 3.3 g/dL
TBIL [3]: 0.1 mg/dL
TC [3]: 75 mg/dL
TG [3]: 43 mg/dL
TP [3]: 5.4 g/dL
gamma-GTP [3]: 1.2 IU/L
TERMINAL_BW [4]: 223.4 g
APTT [4]: 18.9 s
Bas [4]: 0%
Eos [4]: 0.8%
Fbg [4]: 204.6 mg/dL
Hb [4]: 13.3 g/dL
Ht [4]: 40%
Lym [4]: 76.2%
MCH [4]: 21.5 pg
MCHC [4]: 33.3%
MCV [4]: 64.5 fL
Mono [4]: 2.4%
Neu [4]: 19.8%
PT [4]: 12.7 s
Plat [4]: 125.2 x10_4/uL
RBC [4]: 621 x10_4/ul
Ret [4]: 7.3%
WBC [4]: 85.6 x10_2/uL
KIDNEY_L [4]: 1 g
KIDNEY_R [4]: 1 g
KIDNEY_TOTAL [4]: 1.9 g
LIVER [4]: 10.9 g
A/G [4]: 1.8
ALP [4]: 958.6 IU/L
ALT [4]: 42.8 IU/L
AST [4]: 64.8 IU/L
BUN [4]: 14.6 mg/dL
CRE [4]: 0.4 mg/dL
Ca [4]: 10.9 mg/dL
Cl [4]: 103.8 meq/L
DBIL [4]: 0.1 mg/dL
GLC [4]: 208 mg/dL
IP [4]: 8.1 mg/dL
K [4]: 4.2 meq/L
LDH [4]: 119.8 IU/L
Na [4]: 141.4 meq/L
PL [4]: 144.6 mg/dL
RALB [4]: 3.4 g/dL
TBIL [4]: 0.2 mg/dL
TC [4]: 76.8 mg/dL
TG [4]: 102 mg/dL
TP [4]: 5.4 g/dL
gamma-GTP [4]: 1.4 IU/L
TERMINAL_BW [5]: 213.3 g
APTT [5]: 19.4 s
Bas [5]: 0%
Eos [5]: 1%
Fbg [5]: 212.2 mg/dL
Hb [5]: 12.2 g/dL
Ht [5]: 35.6%
Lym [5]: 78.4%
MCH [5]: 21.9 pg
MCHC [5]: 34.3%
MCV [5]: 63.7 fL
Mono [5]: 3%
Neu [5]: 17%
PT [5]: 13.2 s
Plat [5]: 124.4 x10_4/uL
RBC [5]: 557.4 x10_4/ul
Ret [5]: 8.3%
WBC [5]: 88.7 x10_2/uL
KIDNEY_L [5]: 0.9 g
KIDNEY_R [5]: 0.9 g
KIDNEY_TOTAL [5]: 1.9 g
LIVER [5]: 9.6 g
A/G [5]: 1.9
ALP [5]: 900 IU/L
ALT [5]: 36 IU/L
AST [5]: 66.6 IU/L
BUN [5]: 10.6 mg/dL
CRE [5]: 0.3 mg/dL
Ca [5]: 11 mg/dL
Cl [5]: 103.6 meq/L
DBIL [5]: 0.2 mg/dL
GLC [5]: 184.2 mg/dL
IP [5]: 8.2 mg/dL
K [5]: 4 meq/L
LDH [5]: 128.4 IU/L
Na [5]: 140.4 meq/L
PL [5]: 179.2 mg/dL
RALB [5]: 3.4 g/dL
TBIL [5]: 0.3 mg/dL
TC [5]: 86 mg/dL
TG [5]: 122.6 mg/dL
TP [5]: 5.2 g/dL
gamma-GTP [5]: 1.6 IU/L
TERMINAL_BW [6]: 211 g
APTT [6]: 18.5 s
Bas [6]: 0%
Eos [6]: 1%
Fbg [6]: 211.2 mg/dL
Hb [6]: 12.7 g/dL
Ht [6]: 37.4%
Lym [6]: 75.6%
MCH [6]: 21.9 pg
MCHC [6]: 34%
MCV [6]: 64.3 fL
Mono [6]: 4%
Neu [6]: 19%
PT [6]: 13.3 s
Plat [6]: 123.4 x10_4/uL
RBC [6]: 582 x10_4/ul
Ret [6]: 7.7%
WBC [6]: 90 x10_2/uL
KIDNEY_L [6]: 1 g
KIDNEY_R [6]: 1 g
KIDNEY_TOTAL [6]: 2 g
LIVER [6]: 9.2 g
A/G [6]: 1.7
ALP [6]: 994.4 IU/L
ALT [6]: 34 IU/L
AST [6]: 66.8 IU/L
BUN [6]: 10.4 mg/dL
CRE [6]: 0.3 mg/dL
Ca [6]: 10.8 mg/dL
Cl [6]: 103.2 meq/L
DBIL [6]: 0.092 mg/dL
GLC [6]: 204 mg/dL
IP [6]: 9.1 mg/dL
K [6]: 4.1 meq/L
LDH [6]: 144.2 IU/L
Na [6]: 141 meq/L
PL [6]: 154.6 mg/dL
RALB [6]: 3.3 g/dL
TBIL [6]: 0.2 mg/dL
TC [6]: 82.8 mg/dL
TG [6]: 45 mg/dL
TP [6]: 5.3 g/dL
gamma-GTP [6]: 1.4 IU/L
TERMINAL_BW [7]: 207.4 g
APTT [7]: 17.9 s
Bas [7]: 0%
Eos [7]: 0.8%
Fbg [7]: 202.4 mg/dL
Hb [7]: 12.4 g/dL
Ht [7]: 36.1%
Lym [7]: 75.2%
MCH [7]: 21.5 pg
MCHC [7]: 34.3%
MCV [7]: 62.8 fL
Mono [7]: 2.2%
Neu [7]: 21.6%
PT [7]: 13.9 s
Plat [7]: 113.3 x10_4/uL
RBC [7]: 575.8 x10_4/ul
Ret [7]: 7.7%
WBC [7]: 71.8 x10_2/uL
KIDNEY_L [7]: 0.9 g
KIDNEY_R [7]: 1 g
KIDNEY_TOTAL [7]: 1.9 g
LIVER [7]: 8.4 g
A/G [7]: 1.8
ALP [7]: 1031 IU/L
ALT [7]: 31.4 IU/L
AST [7]: 67.6 IU/L
BUN [7]: 10.8 mg/dL
CRE [7]: 0.3 mg/dL
Ca [7]: 10.8 mg/dL
Cl [7]: 104.4 meq/L
DBIL [7]: 0.07 mg/dL
GLC [7]: 186.4 mg/dL
IP [7]: 10.1 mg/dL
K [7]: 3.9 meq/L
LDH [7]: 153.2 IU/L
Na [7]: 142.2 meq/L
PL [7]: 134.2 mg/dL
RALB [7]: 3.5 g/dL
TBIL [7]: 0.1 mg/dL
TC [7]: 74.2 mg/dL
TG [7]: 26.8 mg/dL
TP [7]: 5.5 g/dL
gamma-GTP [7]: 1.2 IU/L
TERMINAL_BW [8]: 222.6 g
APTT [8]: 18.9 s
Bas [8]: 0%
Eos [8]: 0.8%
Fbg [8]: 206.4 mg/dL
Hb [8]: 13.1 g/dL
Ht [8]: 39.3%
Lym [8]: 79.2%
MCH [8]: 21.9 pg
MCHC [8]: 33.4%
MCV [8]: 65.5 fL
Mono [8]: 2.6%
Neu [8]: 16.8%
PT [8]: 13 s
Plat [8]: 123.4 x10_4/uL
RBC [8]: 600.4 x10_4/ul
Ret [8]: 8%
WBC [8]: 97.5 x10_2/uL
KIDNEY_L [8]: 1 g
KIDNEY_R [8]: 1 g
KIDNEY_TOTAL [8]: 2 g
LIVER [8]: 10.5 g
A/G [8]: 1.6
ALP [8]: 1124.8 IU/L
ALT [8]: 39.8 IU/L
AST [8]: 69.8 IU/L
BUN [8]: 13.2 mg/dL
CRE [8]: 0.4 mg/dL
Ca [8]: 10.9 mg/dL
Cl [8]: 104 meq/L
DBIL [8]: 0.1 mg/dL
GLC [8]: 212.4 mg/dL
IP [8]: 8.5 mg/dL
K [8]: 4 meq/L
LDH [8]: 148.6 IU/L
Na [8]: 141 meq/L
PL [8]: 153 mg/dL
RALB [8]: 3.3 g/dL
TBIL [8]: 0.2 mg/dL
TC [8]: 88 mg/dL
TG [8]: 88.4 mg/dL
TP [8]: 5.4 g/dL
gamma-GTP [8]: 1.4 IU/L
